{
  "source": "patent US6864068B2",
  "about": "“Antifungal proteins” (Syngenta Limited, priority 1995, dated 2005)",
  "system": "Fusarium culmorum",
  "test": "Liquid growth inhibition assay in half strength potato dextrose broth",
  "type": "cell-based",
  "conditions": "assayed as described in Example 2",
  "protocol": "Yeast cells transformed with either pTG3828, pMFprepro/Rs AFP2 or PMFpre/RsAFP2 were grown in selective SD medium until a saturated culture was obtained. To assess the antifungal activity of proteins secreted by the yeast cells, the supernatant of the yeast cultures was filtered (sterile 0.22 μm filter) and serially diluted in sterile water. Diluted samples (20 μl) were incubated in microtiter plate wells with 80 μl of half strength potato dextrose broth (Difco) containing spores 10^4 spores/ml) of Fusarium culmorum.\nGrowth of the fungi was monitored by microspectrophotometry as described by Broekaert et al (1990, FEMS Microbiol Lett, 69:55-60). Homogenates of yeast cells were prepared by spinning down 1 ml of a saturated yeast culture, suspending the cells in 200 μl of water, vortexing the cells in the presence of 0.2 g of glass beads (425-600 μm), and clearing the homogenate by centrifugation (1 min, 10000×g). Antifungal activity could only be detected in the culture medium of yeast cells transformed with pMFprepro/RsAFP2, which contained about 2 μg/ml of Rs-AFP2 equivalents. The activity of the homogenate of these cells, as well as that of culture media and cell homogenates of yeast cells transformed with pMFpre/RsAFP2 or pTG3828 transformed yeasts was below the detection limit (about 0.2 μg/ml of Rs-AFP2 equivalents).\nThe supernatant of 100 ml of a saturated culture of yeast transformed with pMFprepro/RsAFP2 (grown on minimal selective SD medium supplemented with 0.5% w/v of casamino acids) was centrifuged (4000 rpm, 10 min), and filtered (0.45 μm) to remove yeast cells and debris. Tris-HC1 (pH9) was added to the supernatant to a final concentration of 50 mM. The sample was loaded at a flow rate of 2 ml/min on an anion exchange chromatography column (Q-Sepharose Fast Flow, 20 ml bed volume, Pharmacia), on-line connected with a disposable reversed-phase C8 silica column (Bond Elut, 500 mg solid phase, Varian, Harbor City, USA). The antifungal activity was not retained on the Q-Sepharose matrix but bound to the C8 silica matrix. […] The latter eluate was dried in a rotating vacuum concentrator, redissolved in 0.5 ml 15% (v/v) acetonitrile containing 0.1% (v/v) TFA, and was loaded on a reversed-phase C2/C18 silica column (Pep-S, 5 μm beads, 0.4×25 cm, Pharmacia connected to a Waters 600 HPLC station pre-equilibriated with 15% acetonitrile containing 0.1% (v/v) TFA. After loading, the column was rinsed with the same buffer until the absorbance reached background level. The column was subsequently eluted with a 15 minute linear gradient from 15% to 50% acetonitrile containing 0.1% TFA at a flow rate of 1 ml/min. The eluate was monitored for proteins by on-line measurement of the absorbance at 280 nm. […] Twenty μl fractions were tested in a liquid growth inhibition assay: 20 μl samples were incubated in microtiter plate wells with 80 μl of half strength potato dextrose broth (Difco) containing 10^4 spores/ml of F culmorum; growth of the fungi was monitored by microspectrophotometry as described by Broekaert et al (1990, FEMS Microbiol Lett, 69: 55-60).\nThe specific antifungal activity of RPC-purified peak A material, as well as that of plant-derivable Rs-AFP2, was determined by measuring the percentage growth inhibition of F culmorum caused by serial dilutions of the protein samples. […]",
  "data": [
    {"substance": "SIα2: Sorghum bicolor α-amylase inhibitor 2, partially homologous to Rs-AFP2", "values": [
      {"measurement": "antifungal activity", "value": "does not exhibit antifungal activity"}
    ]}
  ]
}
